# Data as given in US9309235B2, “SGC stimulators” (IRONWOOD PHARMACEUTICALS, INC., priority 2012, dated 2016).
# Columns and labels:
# [1] = system: lambs with acute pulmonary hypertension; details: cited from earlier work; for effect on mean arterial pressure / pulmonary vasodilation / transpulmonary cGMP release / systemic arterial oxygenation: inhaled microparticles, awake lambs; for effect on mean arterial pressure / pulmonary vasodilation / transpulmonary cGMP release: U-46619 infusion
# [2] = target: T1, soluble guanylate cyclase (sGC) (Homo sapiens, UniProt Q02108+Q02153); assay: sGC-HEK-cGMP assay (run with SNP incubation); format: cell-based; details: for EC50: full concentration-response curve, with SNP incubation, read-out: HEK assay EC50-unconstrained; for EC50 / Emax: top not fitted to 100%; for Emax: maximum activity from full concentration-response curve, relative to positive control BAY 41-2272, read-out: HEK assay Emax-unconstrained (Percent); for Emax at 1 µM: test compound 1 μM, read-out: HEK assay (Percent Emax at 1 μM); for Emax at 1 µM / Emax at 10 µM / Emax at 30 µM: 10 μM SNP, Emax = 100% is BAY 41-2272 at 10 μM in the presence of 100 μM SNP; for Emax at 10 µM: test compound 10 μM, read-out: HEK assay (Percent Emax at 10 μM); for Emax at 30 µM: test compound 30 μM, read-out: HEK assay (Percent Emax at 30 μM)
# T1 construct: endogenously expressing soluble guanylate cyclase (sGC); endogenous in cells; host or cells: HEK293
# T1 sequence (Q02153 1-619): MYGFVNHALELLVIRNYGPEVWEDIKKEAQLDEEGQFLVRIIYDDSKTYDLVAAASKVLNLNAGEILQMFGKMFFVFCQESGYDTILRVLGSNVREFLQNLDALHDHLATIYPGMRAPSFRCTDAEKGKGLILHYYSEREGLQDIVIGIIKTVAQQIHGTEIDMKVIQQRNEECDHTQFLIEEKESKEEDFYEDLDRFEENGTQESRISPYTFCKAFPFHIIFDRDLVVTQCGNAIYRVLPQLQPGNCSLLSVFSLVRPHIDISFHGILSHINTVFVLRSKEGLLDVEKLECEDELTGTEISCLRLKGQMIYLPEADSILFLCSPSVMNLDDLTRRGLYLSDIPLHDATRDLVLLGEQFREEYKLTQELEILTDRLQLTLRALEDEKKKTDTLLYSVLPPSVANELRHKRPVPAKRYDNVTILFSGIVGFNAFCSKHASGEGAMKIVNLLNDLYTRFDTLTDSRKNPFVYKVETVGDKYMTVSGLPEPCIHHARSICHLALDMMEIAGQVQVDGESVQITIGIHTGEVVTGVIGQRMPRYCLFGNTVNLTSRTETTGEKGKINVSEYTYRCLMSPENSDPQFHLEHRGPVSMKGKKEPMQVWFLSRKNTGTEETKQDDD
# T1 sequence (Q02108 1-690): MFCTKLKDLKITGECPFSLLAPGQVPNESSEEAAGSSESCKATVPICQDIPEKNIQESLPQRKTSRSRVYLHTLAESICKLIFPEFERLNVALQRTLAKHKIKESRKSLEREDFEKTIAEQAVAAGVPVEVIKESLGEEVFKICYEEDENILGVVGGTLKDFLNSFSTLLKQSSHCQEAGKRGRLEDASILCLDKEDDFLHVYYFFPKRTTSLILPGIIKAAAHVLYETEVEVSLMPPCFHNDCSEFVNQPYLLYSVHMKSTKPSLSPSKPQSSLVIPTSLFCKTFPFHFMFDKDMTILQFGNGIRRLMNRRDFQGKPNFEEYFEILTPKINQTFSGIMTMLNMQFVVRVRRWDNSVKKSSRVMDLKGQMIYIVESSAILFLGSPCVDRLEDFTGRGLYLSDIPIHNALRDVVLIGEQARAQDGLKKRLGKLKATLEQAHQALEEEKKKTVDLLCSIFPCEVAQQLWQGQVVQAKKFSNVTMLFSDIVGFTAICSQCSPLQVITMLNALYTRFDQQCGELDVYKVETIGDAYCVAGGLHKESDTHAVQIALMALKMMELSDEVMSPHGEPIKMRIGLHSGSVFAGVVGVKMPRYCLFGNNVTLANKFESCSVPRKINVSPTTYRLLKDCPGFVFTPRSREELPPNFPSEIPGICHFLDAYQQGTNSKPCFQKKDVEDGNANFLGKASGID
# Procedure: (Assay Run with SNP Incubation)
# Human embryonic kidney cells (HEK293), endogenously expressing soluble guanylate cyclase (sGC), were used to evaluate the activity of test compounds. Compounds stimulating the sGC receptor should cause an increase in the intracellular concentration of cGMP. HEK 293 cells were seeded in Dulbecco's Modification of Eagle's Medium supplemented with fetal bovine serum (10% final) and L-glutamine (2 mM final) in a 200 μL volume at a density of 1×10^5 cells/well in a poly-D-lysine coated 96 well flat bottom plate and grown overnight at 37° C. Medium was aspirated and cells were washed with 1× Hank's Buffered Saline Salt Solution (200 μL). Cells were then incubated for 15 minutes at 37° C. with 200 μL of a 0.5 mM 3-isobutyl-1-methylxanthine (IBMX) solution. Test article and sodium nitroprusside solutions (x μM concentration for test article solution and 10 μM concentration for SNP solution; wherein x is one of the following concentrations);
# were then added to the assay mixture (2 μL each) and the resulting mixture incubated at 37° C. for 10 minutes. After the 10 minute incubation, the assay mixture was aspirated and 0.1M HCl (200 μL) was added to the cells. The plate was incubated at 4° C. for 30 minutes in the 0.1M HCl to stop the reaction and lyse the cells. The plates were then centrifuged at 1,200 g for 5 minutes at room temperature. Supernatants were collected and transferred to a new flat bottom 96 well plate for analysis by HPLC-MS. Vehicle controls were carried out using DMSO (1%) solutions. A known sGC stimulator, BAY 41-2272, was used as the positive control. Samples were diluted with an equal volume of 1 M Ammonium Acetate (pH 7) to neutralize samples for better chromatography. A 2× cGMP standard solution was prepared in 0.1 M HCl and then diluted with an equal volume of 1 M Ammonium Acetate, with the following final concentrations in nM: 1024, 512, 256, 128, 64, 32, 16, 8, 4, 2, 1. cGMP concentrations in the test plates were determined from each sample using the LC/MS conditions shown in Table 2 below and the calculated cGMP standard curve. EC50 values were calculated from concentration-response curves generated with GraphPad Prism Software.
# The biological activities of some of the compounds of Formula I determined with the sGC—HEK assay with SNP incubation are summarized in Tables 3A and 3B.
# [3] = target: T2, Human soluble guanylate cyclase enzyme (hsGC) (Homo sapiens, UniProt Q02108+Q02153); assay: Purified human sGC enzyme synergy assay in the presence of sodium nitroprusside (SNP); format: biochemical; details: 30 μM compound in the presence of 1 μM SNP; fold increase over DMSO controls
# T2 construct: purchased Enzo Inc. ALX-201-177
# T2 sequence (Q02153 1-619): T1 sequence (Q02153 1-619)
# T2 sequence (Q02108 1-690): T1 sequence (Q02108 1-690)
# Procedure: Human soluble guanylate cyclase enzyme (hsGC) obtained from Enzo Inc. (P/N: ALX-201-177) was used to evaluate the activity of test compounds. The assay reactions contained 0.1 M Tris (pH 8.0), 0.5 mg/mL BSA (pH 8.0), 2 mM DTT, 2 mM MgCl2, 300 μM GTP, 1 mM 3-isobutyl-1-methylxanthine (IBMX) and 5 ng human soluble guanylate cyclase enzyme. Test compounds in DMSO were then added (2 μL, 10 or 30 μM final concentration) and incubated (water, 200 μL, 96-well plate format) at 37° C. for 30 minutes. The controls were carried out using 2 μL DMSO. After the 30 minute incubation, the reaction was stopped with the addition of 200 μL of cold methanol. The plate was then centrifuged at 3,200 rpm for 10 minutes at room temperature. Supernatants (200 μL) were collected and transferred to a new 96 well plate for analysis by HPLC LC/MS/MS.
# An 8 point cGMP (Sigma-Aldrich P/N: G6129) standard curve was prepared in assay buffer ranging from 0.156-20 μM. Samples for the cGMP standard curve were then diluted with an equal volume of methanol resulting in final cGMP concentrations of 0.078-10 μM.
# The cGMP standard curve was generated using GraphPad Prism Software.
# Calculations: Specific Activity was determined by the amount of cGMP formed (nmoles) per mg of sGC per min. Enzyme “fold-change” was calculated by dividing Specific Activity for test compounds by Specific Activity of DMSO controls. […]
# [4] = system: Guinea pig tracheal smooth muscle; assay: Electrical field stimulated guinea pig tracheal smooth muscle contraction (ex vivo); details: pooled from three experiments; 95% CI 0.78-0.94; read-out: IC50, inhibition of EFS-induced tracheal smooth muscle contraction
# Description: Animals: Guinea pig, Dunkin Hartley, male, Full barrier-bred and certified free of specific micro-organisms on receipt 525-609 g on the experimental day, Harlan UK Ltd. Guinea pigs were housed in a group of 4 in solid-bottomed cages with Gold Flake bedding in a controlled environment (airflow, temperature and humidity). Food (FD1, Special Diet Services) and water were provided ad libitum.
# On each experimental day, a guinea pig was killed by exposure to a rising concentration of CO2 and the trachea removed. The trachea was cleaned of extraneous tissue and cut open longitudinally in a line opposite the muscle, opened out and cut into strips 2-3 cartilage rings wide. […] Tissues were washed with Kreb's buffer and stimulated using the previously determined sub-maximal voltage for 1 hour to establish a stable baseline contraction prior to assessment of compound activity. *“Novel and Versatile Superfusion System. […]
# A cumulative dose response curve (DRC) to each test substance was then performed and changes in smooth muscle contraction measured. The effect of each test substance in each experiment was expressed as a percentage inhibition of the baseline contraction, normalized to the relevant vehicle controls. […] The data from all three experiments was pooled, the DRC plotted, and the test substance potency and efficacy determined.
EC50 [2] [µM],Emax [2] [%],Emax at 1 µM [2] [%],Emax at 10 µM [2] [%],Emax at 30 µM [2] [%],SMILES,effect on mean arterial pressure [1],pulmonary vasodilation [1],transpulmonary cGMP release [1],also measured
,,,,,Nc1nc(-c2nn(Cc3ccccc3F)c3ncccc23)ncc1C1CC1 [BAY 41-2272],without significant effect,dose dependent pulmonary vasodilation,increased transpulmonary cGMP release,
,,,,,Nc1nc(-c2nn(Cc3ccccc3F)c3ncccc23)nc(N)c1N1CCOCC1 [BAY 41-8543],without significant effect,dose dependent pulmonary vasodilation,increased transpulmonary cGMP release,magnitude and duration of pulmonary vasodilation induced by iNO ([1]; after inhaling microparticles): augmented; systemic arterial oxygenation [1]: increased systemic arterial oxygenation
,,,,,O=C(O)CCCCN(CCc1ccccc1OCc1ccc(CCc2ccccc2)cc1)Cc1ccc(C(=O)O)cc1 [BAY 58-2667],without significant effect,dose dependent pulmonary vasodilation,increased transpulmonary cGMP release,pulmonary vasodilation and transpulmonary cGMP release after treatment with ODQ ([1]; inhaled microparticles after intravenous ODQ): greatly enhanced; systemic arterial oxygenation [1]: increased systemic arterial oxygenation
1 to 5,60 to 80,20 to 40,40 to 60,60 to 80,Nc1ccnc(-c2cc(-c3ccon3)n(Cc3ccsc3)n2)n1 [Compound I-1],,,,Enzyme Activity (increase at 30 μM with SNP) [3]: D (D = 10 or <20 fold increase)
0.5 to 1,40 to 60,20 to 40,40 to 60,40 to 60,Oc1nc(-c2cc(-c3ccon3)n(Cc3ccsc3)n2)ncc1F [Compound I-2],,,,Enzyme Activity (increase at 30 μM with SNP) [3]: D (D = 10 or <20 fold increase)
0.01 to 0.1,40 to 60,40 to 60,40 to 60,60 to 80,Oc1nc(-c2cc(-c3ccon3)n(Cc3sccc3F)n2)ncc1F [Compound I-3],,,,
5 to 10,60 to 80,0 to 10,40 to 60,40 to 60,Oc1nc(-c2cc(-c3ccon3)n(Cc3cccs3)n2)ncc1F [Compound I-4],,,,
,,,,,CC(C)[N+]1(C)[C@@H]2CC[C@H]1CC(OC(=O)C(CO)c1ccccc1)C2 (stereo partly shown) [Ipratropium bromide],,,,IC50 [4]: 0.00086 µM
,,,,,"O=c1onc2cnc3ccccc3n12 [ODQ, 1H-[1,2,4]oxadiazolo[4,3-a]quinoxalin-1-one]",,,,pulmonary vasodilator effect of iNO ([1]; intravenous administration): markedly reduced
